The record followed here is patent US11312727B1, “Macrocyclic flu endonuclease inhibitors” (Janssen BioPharma, Inc., priority 2018, dated 2022).

One series can be described thus: in vitro. Particulars: human, CC50, uninfected A549 cells, CellTiter-Glo. In general terms: In ATP-based viability assays light output follows the ATP content of the culture.
The test system of series [1] is Influenza strain A549 A/WSN/33 (H1N1). The series is described as follows: microbe, parasite or virus in culture. The format is cell-based. As to conditions: Influenza A virus, A549, 20 h, A549 cells, influenza A/WSN/33 (H1N1), 20 hours incubation; read-out: A549_A(H1N1) EC50.

For orientation: CC50 means the concentration that lowers cell viability or growth by half. Read a low CC50 as harm at low concentration. Usually EC50 stands for the concentration that produces a half-maximal response. With `CC[C@@H]1/C=C/COc2c(F)cccc2[C@@H](c2ccccc2)N2CN1C(=O)c1c(O)c(=O)ccn12` (single isomer, unassigned) [Compound 85AB, (9*R,18*R,E)-9-ethyl-4-fluoro-12-hydroxy-18-phenyl-6,9-dihydro-18H-10,17-methanobenzo[b]pyrido[1,2-f][1]oxa[5,6,9]triazacyclotridecine-11,13-dione], the 50% cytotoxic concentration (CC50) in “in vitro” was more than 200 nM. Besides, in series [1], the EC50 is 2 nM.

`O=C1c2c(O)c(=O)ccn2N2CN1CCCCCc1ccccc1C2c1ccccn1` (centres unmarked) [Compound 12, 4-hydroxy-16-(pyridin-2-yl)-7,8,9,10,11,16-hexahydro-6,17-methanobenzo[k]pyrido[1,2-b][1,2,5]triazacyclotridecine-3,5-dione] showed a CC50 in “in vitro” of more than 2000 nM. Moreover, the EC50 in series [1] was 86 nM.

`CC[C@H]1/C=C/COc2cc(Cl)ccc2[C@@H](c2ccccc2)N2CN1C(=O)c1c(O)c(=O)ccn12` (single isomer, unassigned) [Compound 97AB] returned a CC50 in “in vitro” of more than 1000 nM. Further, the EC50 in series [1] came to 5.6 nM.

With `O=C1c2c(O)c(=O)ccn2N2CN1CC/C=C/COc1cc(F)ccc1[C@@H]2c1ccccc1` (single isomer, unassigned) [Compound 77A, (7E,19*R)-3-fluoro-13-hydroxy-19-phenyl-9,10-dihydro-6H,19H-11,18-methanopyrido[2,1-i][1,7,10,11]benzoxatriazacyclotetradecine-12,14-dione], the CC50 in the series “in vitro” is 33200 nM. Moreover, the concentration for a half-maximal effect (EC50) in series [1] was 5280 nM.

For the compound `O=C1c2c(O)c(=O)ccn2N2CN1C/C=C\COc1c(ccc(Cl)c1Cl)[C@H]2c1ccccc1` (single isomer, unassigned) [Compound 103A, (18*R,Z)-3,4-dichloro-12-hydroxy-18-phenyl-6,9-dihydro-18H-10,17-methanobenzo[b]pyrido[1,2-f][1]oxa[5,6,9]triazacyclotridecine-11,13-dione], the cytotoxic concentration (CC50) in the series “in vitro” is more than 200 nM. For the same compound, the EC50 in series [1] is more than 100 nM.

Consider `O=C1c2c(O)c(=O)ccn2N2CN1CCC/C=C\c1cccc3c1[C@H]2c1ccccc1CC3` [Compound 31B, (19bR,Z)-4-hydroxy-8,9,15,19b-tetrahydro-7H,14H-13,12-(epiprop[1]en[1]yl[3]ylidene)-6,20-methanobenzo[3,4]cyclohepta[1,2-1]pyrido[1,2-b][1,2,5]triazacyclotridecine-3,5-dione], for which, in “in vitro”, the CC50 is more than 2000 nM. Also, the EC50 in series [1] was 4 nM.

As for `O=C1c2c(O)c(=O)ccn2N2CN1C[C@H]1C[C@@H]1COc1c(F)cccc1[C@@H]2c1ccccc1` (single isomer, unassigned) [Compound 125BB, (1a*S,8*S,17a*S)-4-fluoro-14-hydroxy-8-phenyl-1a,2,17,17a-tetrahydro-1H,8H-9,16-methanobenzo[b]cyclopropa[k]pyrido[1,2-f][1]oxa[5,6,9]triazacyclotridecine-13,15-dione], the CC50 in “in vitro” is more than 200 nM. Besides, the EC50 in series [1] was more than 100 nM.

On to `CC(C)(C)[C@H]1/C=C/COc2cccc3c2[C@@H](c2ccccc2SC3)N2CN1C(=O)c1c(O)c(=O)ccn12` (single isomer, unassigned) [Compound 157A, (9*R,17a*S,*E)-9-(tert-butyl)-12-hydroxy-2,6,9,17a-tetrahydro-3,4-(epiprop[1]en[1]yl[3]ylidene)-10,17-methanobenzo[6,7]thiepino[4,5-c]pyrido[1,2-f][1]oxa[5,6,9]triazacyclotridecine-11,13-dione], for which, in the series “in vitro”, the 50% cytotoxic concentration (CC50) was more than 100 nM. Also, the concentration for a half-maximal effect (EC50) in series [1] came out at 1.3 nM.

In “in vitro”, `C/C1=C/COc2ccccc2[C@@H](c2ccccc2)N2CN(C1)C(=O)c1c(O)c(=O)ccn12` (single isomer, unassigned) [Compound 38A, (18*R,Z)-12-hydroxy-8-methyl-18-phenyl-6,9-dihydro-18H-10,17-methanobenzo[b]pyrido[1,2-f][1]oxa[5,6,9]triazacyclotridecine-11,13-dione] displayed a CC50 of more than 2000 nM. Also, in series [1], the concentration for a half-maximal effect (EC50) is more than 1000 nM.

Take `CC[C@H]1/C=C/COc2c(ccc(F)c2F)[C@H](c2ccccc2)N2CN1C(=O)c1c(O)c(=O)ccn12` [Compound 101BA, (9S,18S,E)-9-ethyl-3,4-difluoro-12-hydroxy-18-phenyl-6,9-dihydro-18H-10,17-methanobenzo[b]pyrido[1,2-f][1]oxa[5,6,9]triazacyclotridecine-11,13-dione]: in the series “in vitro”, the CC50 was more than 200 nM. Also, the half-maximal effective concentration (EC50) in series [1] was more than 100 nM.

As to `CC[C@@H]1/C=C/COc2c(ccc(F)c2F)[C@H](c2ccccn2)N2CN1C(=O)c1c(O)c(=O)ccn12` (single isomer, unassigned) [Compound 160BB, (9*R,18*R,*E)-9-ethyl-3,4-difluoro-12-hydroxy-18-(pyridin-2-yl)-6,9-dihydro-18H-10,17-methanobenzo[b]pyrido[1,2-f][1]oxa[5,6,9]triazacyclotridecine-11,13-dione], the CC50 in the series “in vitro” is more than 100 nM. For the same compound, the EC50 in series [1] is more than 50 nM.

In the case of `O=C1c2c(O)c(=O)ccn2N2CN1C/C=C\COc1ccc(Cl)cc1[C@@H]2c1ccccc1` (single isomer, unassigned) [Compound 51B], the 50% cytotoxic concentration (CC50) in “in vitro” is more than 2000 nM. Also, in series [1], the EC50 was found to be 10 nM.

`O=C1c2c(O)c(=O)ccn2N2CN1C/C=C\COc1cccc3c1[C@H]2c1ccccc1OC3` (single isomer, unassigned) [Compound 53A, (21a*R,Z)-16-hydroxy-6,10,13,21a-tetrahydro-7,8-(epiprop[1]en[1]yl[3]ylidene)-14,21-methanobenzo[6,7]oxepino[4,5-c]pyrido[1,2-f][1]oxa[5,6,9]triazacyclotridecine-15,17-dione]: the CC50 in “in vitro” was more than 2000 nM. Also, the EC50 in series [1] was found to be 34 nM.

The compound `CC(C)(C)[C@@H]1/C=C/COc2cccc3c2[C@H](c2ccccc2SC3)N2CN1C(=O)c1c(O)c(=O)ccn12` (single isomer, unassigned) [Compound 157B, (9*S,17a*R,*E)-9-(tert-butyl)-12-hydroxy-2,6,9,17a-tetrahydro-3,4-(epiprop[1]en[1]yl[3]ylidene)-10,17-methanobenzo[6,7]thiepino[4,5-c]pyrido[1,2-f][1]oxa[5,6,9]triazacyclotridecine-11,13-dione] showed a half-maximal cytotoxic concentration (CC50) in “in vitro” of more than 100 nM. In series [1], the EC50 was more than 50 nM.

Take `O=C1c2c(O)c(=O)ccn2N2CN1CC/C=C\COc1cc(F)c(F)c3c1[C@H]2c1ccccc1SC3` (single isomer, unassigned) [Compound 88B, (23b*S, Z)-16,17-difluoro-6-hydroxy-10,13,18,23b-tetrahydro-9H-1,8-methano[1]benzothiepino[5,4,3-1m]pyrido[2,1-i][1,7,10,11]benzoxatriazacyclotetradecine-5,7-dione]: in the series “in vitro”, the CC50 was more than 200 nM. Further, the concentration for a half-maximal effect (EC50) in series [1] stood at 1 nM.

Take `C[C@@H]1/C=C\COc2cccc3c2[C@H](c2ccccc2SC3)N2CN1C(=O)c1c(O)c(=O)ccn12` (single isomer, unassigned) [Compound 138BB, (13*R,21a*R,Z)-16-hydroxy-13-methyl-6,10,13,21a-tetrahydro-7,8-(epiprop[1]en[1]yl[3]ylidene)-14,21-methanobenzo[6,7]thiepino[4,5-c]pyrido[1,2-f][1]oxa[5,6,9]triazacyclotridecine-15,17-dione]: the CC50 in “in vitro” is more than 200 nM. In addition, the 50% effective concentration (EC50) in series [1] was more than 100 nM.

With `O=C1c2c(O)c(=O)ccn2N2CN1C[C@H]1C[C@@H]1COc1cc(F)c(F)c3c1[C@@H]2c1ccccc1SC3` (single isomer, unassigned) [Compound 127AA, (1a*S,11b*S,20a*S)-22,23-difluoro-17-hydroxy-1a,2,6,11b,20,20a-hexahydro-1H-5,4-(epiprop[1]en[1]yl[3]ylidene)-12,19-methanobenzo[6,7]thiepino[4,5-c]cyclopropa[k]pyrido[1,2-f][1]oxa[5,6,9]triazacyclotridecine-16,18-dione], the CC50 in the series “in vitro” was more than 200 nM. In series [1], the concentration for a half-maximal effect (EC50) was determined as 1.5 nM.

In the case of `COC[C@H]1/C=C/COc2ccccc2[C@@H](c2ccccc2)N2CN1C(=O)c1c(O)c(=O)ccn12` (single isomer, unassigned) [Compound 150A, (9*R,18*R,*E)-12-hydroxy-9-(methoxymethyl)-18-phenyl-6,9-dihydro-18H-10,17-methanobenzo[b]pyrido[1,2-f][1]oxa[5,6,9]triazacyclotridecine-11,13-dione], the CC50 in the series “in vitro” was more than 100 nM. The 50% effective concentration (EC50) in series [1] stood at 9 nM.

`O=C1c2c(O)c(=O)ccn2N2CN1C/C=C/CCc1cc(F)ccc1[C@H]2c1ccccn1` (single isomer, unassigned) [Compound 57B, (16*S,E)-13-fluoro-4-hydroxy-16-(pyridin-2-yl)-7,10,11,16-tetrahydro-6,17-methanobenzo[k]pyrido[1,2-b][1,2,5]triazacyclotridecine-3,5-dione] gave a CC50 in “in vitro” of more than 2000 nM. For the same compound, in series [1], the EC50 was more than 1000 nM.

Take `O=C1c2c(O)c(=O)ccn2N2CN1C/C=C\CCc1ncccc1[C@H]2c1ccccc1` (single isomer, unassigned) [Compound 24A, (18*R,*Z)-12-hydroxy-18-phenyl-5,6,9,18-tetrahydro-10,17-methanodipyrido[1,2-b:2′,3′-k][1,2,5]triazacyclotridecine-11,13-dione]: the half-maximal cytotoxic concentration (CC50) in “in vitro” is more than 10000 nM. The concentration for a half-maximal effect (EC50) in series [1] came out at 39600 nM.

For the compound `CC[C@@H]1/C=C/COc2c(ccc(Cl)c2Cl)C(c2ccccc2)N2CN1C(=O)c1c(O)c(=O)ccn12` (single isomer, unassigned) [Compound 121AA, (9*R,18*R,*E)-3,4-dichloro-9-ethyl-12-hydroxy-18-phenyl-6,9-dihydro-18H-10,17-methanobenzo[b]pyrido[1,2-f][1]oxa[5,6,9]triazacyclotridecine-11,13-dione], the cytotoxic concentration (CC50) in “in vitro” is more than 200 nM. Besides, the EC50 in series [1] was determined as 3.5 nM.

In turn, `O=C1c2c(O)c(=O)ccn2N2CN1C/C=C\COc1cc(F)c(F)c3c1[C@@H]2c1ccccc1SC3` (single isomer, unassigned) [Compound 140C, (21a*R,*Z)-24,25-difluoro-16-hydroxy-6,10,13,21a-tetrahydro-7,8-(epiprop[1]en[1]yl[3]ylidene)-14,21-methanobenzo[6,7]thiepino[4,5-c]pyrido[1,2-f][1]oxa[5,6,9]triazacyclotridecine-15,17-dione] returned a CC50 in “in vitro” of more than 10000 nM. In series [1], the half-maximal effective concentration (EC50) was 37.4 nM.
